Test system: panel of cancer cell lines
Assay: Cell viability (CellTiter-Glo) dose-response across cancer cell line panel;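 on EC50: after 72 h compound incubation with CellTiter-Glo ATP readout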
Format: cell-based, human
Conditions: for EC50: Homo sapiens
From the text: Next, we explored the effect of CSN5 inhibition on the viability of cancer cells. To obtain a comprehensive picture, we generated dose–response curves with a CSN5 inhibitor across more than 500 cancer cell lines in a previously described standardized setting[47] (Supplementary Data 1).
A standardized CellTiter-Glo Assay (Promega #G7570) based on the quantification of ATP was applied according to the manufacturer's protocol to measure the amount of viable cells in culture. In brief, cells were seeded into 384-well plates at optimal density for each cell line. After 4 h, compounds were added at different concentrations in growth medium and incubated for another 72 h in a humidifying chamber at 37 °C and 5% CO2. […] EC50 values were calculated from the plot of percentage of inhibition versus inhibitor concentration using the nonlinear regression analysis software Origin 7.5SR6 (OriginLab Corp.).

EC50 (59M, 59M cells): > 30 µM
EC50 (92.1 cells): 14.4 µM
EC50 (639-V, 639-V cells): 23 µM
EC50 (697 cells): 9.5 µM
EC50 (769-P, 769-P cells): 12.8 µM
EC50 (786-0, 786-O cells): 6.26 µM
EC50 (1321-N1, 1321N1 cells): 12.9 µM
EC50 (8505C, 8505C cells): 8.9 µM
EC50 (A4/Fuk cells): 14.5 µM
EC50 (A101D, A101D cells): 9.82 µM
EC50 (A204, A-204 cells): 15.2 µM
EC50 (A498, A-498 cells): 13.7 µM
EC50 (A549, A549 cells): 10.6 µM
EC50 (A673, A-673 cells): 14.4 µM
EC50 (A2058, A2058 cells): 23.5 µM
EC50 (A2780, A2780 cells): 8.53 µM
EC50 (A-375, A-375 cells): 10.4 µM
EC50 (ABC-1, ABC-1 cells): 3.6 µM
EC50 (ACC-MESO-1, ACC-MESO-1 cells): > 30 µM
EC50 (AM-38, AM-38 cells): 11.9 µM
EC50 (AML-193 cells): 18.9 µM
EC50 (AN3-CA, AN3 CA cells): > 30 µM
EC50 (ASPC1, AsPC-1 cells): 13.4 µM
EC50 (BC-3C cells): 8.14 µM
EC50 (BEN cells): 10.5 µM
EC50 (BFTC-909, BFTC-909 cells): 13.2 µM
EC50 (BHY cells): 12.8 µM
EC50 (BICR 6 cells): 9.82 µM
EC50 (BICR 16 cells): 11.1 µM
EC50 (BICR 18 cells): > 30 µM
EC50 (BICR 31 cells): 19.6 µM
EC50 (BT-16, BT-16 cells): 18.3 µM
EC50 (BT-474, BT-474 cells): 11.4 µM
EC50 (BT-549, BT-549 cells): 19.4 µM
EC50 (C3A, C3A cells): 9.64 µM
EC50 (CAKI-2, Caki-2 cells): 11.3 µM
EC50 (CAL-12T, CAL-12T cells): 8.27 µM
EC50 (CAL-27, CAL 27 cells): 12 µM
EC50 (CAL-29 cells): 11.8 µM
EC50 (CAL-85-1, CAL-85-1 cells): 18.6 µM
EC50 (CAL-120, CAL-120 cells): 9.09 µM
EC50 (CAL-148, CAL-148 cells): 9.65 µM
EC50 (CAMA-1, CAMA-1 cells): 10.9 µM
EC50 (CAPAN-1, Capan-1 cells): 7.41 µM
EC50 (CCRF-HSB-2, CCRF-HSB-2 cells): 4.36 µM
EC50 (CEM/C1, CEMC1 cells): 6.88 µM
EC50 (CFPAC-1, CFPAC-1 cells): 11.4 µM
EC50 (CL-14 cells): 11.1 µM
EC50 (CL-34 cells): 11.1 µM
EC50 (CMK, CMK cells): 8.18 µM
EC50 (CMK-86, CMK-86 cells): 7.36 µM
EC50 (COLO 201, COLO 201 cells): 12.6 µM
EC50 (COLO 205, COLO 205 cells): 11.6 µM
EC50 (COLO 320, COLO-320 cells): 8.29 µM
EC50 (COLO 699, COLO-699 cells): 10.1 µM
EC50 (COLO 704, COLO-704 cells): 12.6 µM
EC50 (COLO-678, COLO-678 cells): 16.6 µM
EC50 (COLO-679, COLO-679 cells): 13.6 µM
EC50 (COLO-741, COLO 741 cells): 27.1 µM
EC50 (COLO-829, COLO 829 cells): 11.6 µM
EC50 (COR-L23, COR-L23 cells): 8.42 µM
EC50 (COR-L105, COR-L105 cells): 13.1 µM
EC50 (COV362, COV362 cells): 10.6 µM
EC50 (CW-2, CW-2 cells): 9.62 µM
EC50 (Calu-6, Calu-6 cells): 9.62 µM
EC50 (ChaGo-K-1, ChaGo-K-1 cells): 12.7 µM
EC50 (Ci-1, CI-1 cells): 2.87 µM
EC50 (DB, DB cells): 8.52 µM
EC50 (DLD-1, DLD-1 cells): > 30 µM
EC50 (DMS-53, DMS 53 cells): 17.9 µM
EC50 (DMS-273, DMS 273 cells): 9.95 µM
EC50 (DND41, DND-41 cells): 12.6 µM
EC50 (DU-4475, DU4475 cells): 14.8 µM
EC50 (EBC-1, EBC-1 cells): 17.8 µM
EC50 (EFM-19, EFM-19 cells): 13.1 µM
EC50 (EFM-192A, EFM-192A cells): 6.13 µM
EC50 (EOL1, EOL-1 cells): 3.43 µM
EC50 (FaDu, FaDu cells): 10.2 µM
EC50 (Fu97, FU97 cells): 8.56 µM
EC50 (G-401, G-401 cells): 7.91 µM
EC50 (G-402, G-402 cells): 11.3 µM
EC50 (GAMG, GAMG cells): > 30 µM
EC50 (GDM-1, GDM-1 cells): 9.32 µM
EC50 (GI-1, GI-1 cells): 15.6 µM
EC50 (GP2d, GP2d cells): > 30 µM
EC50 (HARA cells): 14.2 µM
EC50 (HCC15, HCC-15 cells): 23 µM
EC50 (HCC44, HCC-44 cells): 5.76 µM
EC50 (HCC95, HCC-95 cells): 15 µM
EC50 (HCC827, HCC827 cells): 15.5 µM
EC50 (HCC1143, HCC1143 cells): 11.1 µM
EC50 (HCC1187, HCC1187 cells): 10.7 µM
EC50 (HCC1500, HCC1500 cells): 11.7 µM
EC50 (HCC1588, HCC-1588 cells): 7.61 µM
EC50 (HCC1806, HCC1806 cells): 22.7 µM
EC50 (HCC1954, HCC1954 cells): 15.3 µM
EC50 (HCC-56 cells): 18.5 µM
SMILES: COCc1ccccc1NCc1ccc([C@@H]2[C@H](O)CCCc3cncn32)c(-c2ccccc2Cl)c1 [CSN5i-2e, (5R,6R)-5-(2′-chloro-5-(((2-(methoxymethyl)phenyl)amino)methyl)-[1,1′-biphenyl]-2-yl)-6,7,8,9-tetrahydro-5H-imidazo[1,5-a]azepin-6-ol]
AMAX (59M cells): -44.1889
AMAX (92.1 cells): -96.1867
AMAX (A101D cells): -85.3496
AMAX (A2780 cells): -96.2609
AMAX (A-704 cells): -60.7987
AMAX (ABC-1 cells): -95.9302
AMAX (AM-38 cells): -94.7284
AMAX (AsPC-1 cells): -87.4169
AMAX (BFTC-909 cells): -56.5002
AMAX (BICR 6 cells): -77.6622
AMAX (BICR 16 cells): -89.8558
AMAX (Calu-6 cells): -67.9674
AMAX (DU4475 cells): -97.6355
AMAX (EFM-192A cells): -84.5576
AMAX (FaDu cells): -85.1498
AMAX (GP2d cells): -5.479
AMAX (HARA cells): -90.816
AMAX (HCC1143 cells): -51.336
AMAX (HCC1187 cells): -85.4618
AMAX (HD-MY-Z cells): -75.4546
AMAX (HEC-151 cells): -93.7534
AMAX (HEL cells): -96.2302
AMAX (HL-60 cells): -99.3648
AMAX (HLC-1 cells): -73.0832
AMAX (HLE cells): -72.0117
AMAX (HLF cells): -45.3286
AMAX (HSC-4 cells): -74.8911
AMAX (HT-29 cells): -73.0471
AMAX (HUP-T4 cells): -52.1939
AMAX (Hep3B cells): -93.3733
EC50 (HCC70, HCC70 cells): 13.3 µM

Source: PMC5078989, “Targeted inhibition of the COP9 signalosome for treatment of cancer” (Nature Communications, 2016)
